Reference: the supplement of paper PMC10307832

Tests used:
Experiment in all cases: relative viability (nuclei count vs DMSO), 5 days (fraction); higher = more cells survive
NCI-H2170 = system: NCI-H2170
How it was run: (§1)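 Relative viability divides the nuclei count in treated wells by that in vehicle wells. Lung cancer cell lines were seeded in 1536-well plates, dosed by pin tool the next day, and fixed and stained after 5 days in one step with final 0.05% Triton X-100, 1% formaldehyde and 1 ug/ml Hoechst. Dosing was a single drug or a fixed anchor-drug dose plus five library-drug doses (not always all listed) in √10 steps, and values are medians of duplicate plates imaged at 4×.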

ABC-1 = system: ABC-1
How it was run: as §1

NCI-H661 = system: NCI-H661
How it was run: as §1

EKVX = system: EKVX
How it was run: as §1

COR-L23 = system: COR-L23
How it was run: as §1

NCI-H2023 = system: NCI-H2023
How it was run: as §1

LU99A = system: LU99A
How it was run: as §1

NCI-H1650 = system: NCI-H1650
How it was run: as §1

COR-L 105 = system: COR-L 105
How it was run: as §1

NCI-H3122 = system: NCI-H3122
How it was run: as §1

HCC-366 = system: HCC-366
How it was run: as §1

HARA = system: HARA
How it was run: as §1

201T = system: 201T
How it was run: as §1

NCI-H2009 = system: NCI-H2009
How it was run: as §1

NCI-H727 = system: NCI-H727
How it was run: as §1

NCI-H838 = system: NCI-H838
How it was run: as §1

NCI-H1437 = system: NCI-H1437
How it was run: as §1

NCI-H1666 = system: NCI-H1666
How it was run: as §1

PC-14 = system: PC-14
How it was run: as §1

BEN = system: BEN
How it was run: as §1

NCI-H441 = system: NCI-H441
How it was run: as §1

CAL-12T = system: CAL-12T
How it was run: as §1

LK-2 = system: LK-2
How it was run: as §1

SW 900 = system: SW 900
How it was run: as §1

## COc1cc(N2CCC(C(N)=O)CC2)ccc1Nc1nc(N)c(Cl)c(Nc2ccccc2S(=O)(=O)C(C)C)n1 [HG-5-88-01] + Cc1nc(Nc2ncc(C(=O)Nc3c(C)cccc3Cl)s2)cc(N2CCN(CCO)CC2)n1 [Dasatinib] (partner 0.075 µM)
NCI-H2170; first compound 0.04 µM
  relative viability: 0.502
NCI-H2170; first compound 0.1265 µM
  relative viability: 0.441
NCI-H2170; first compound 0.4 µM
  relative viability: 0.498
NCI-H2170; first compound 1.265 µM
  relative viability: 0.165
NCI-H2170; first compound 4 µM
  relative viability: 0.269
ABC-1; first compound 0.04 µM
  relative viability: 0.5
ABC-1; first compound 0.1265 µM
  relative viability: 0.583
ABC-1; first compound 0.4 µM
  relative viability: 0.389
ABC-1; first compound 1.265 µM
  relative viability: 0.457
ABC-1; first compound 4 µM
  relative viability: 0.304
NCI-H661; first compound 0.04 µM
  relative viability: 0.939
NCI-H661; first compound 0.1265 µM
  relative viability: 0.941
NCI-H661; first compound 0.4 µM
  relative viability: 0.791
NCI-H661; first compound 1.265 µM
  relative viability: 0.514
NCI-H661; first compound 4 µM
  relative viability: 0.664
EKVX; first compound 0.04 µM
  relative viability: 0.479
EKVX; first compound 0.1265 µM
  relative viability: 0.563
EKVX; first compound 0.4 µM
  relative viability: 0.435
EKVX; first compound 4 µM
  relative viability: 0.273
COR-L23; first compound 0.04 µM
  relative viability: 0.536
COR-L23; first compound 0.1265 µM
  relative viability: 0.465
COR-L23; first compound 0.4 µM
  relative viability: 0.436
COR-L23; first compound 1.265 µM
  relative viability: 0.374
COR-L23; first compound 4 µM
  relative viability: 0.169
NCI-H2023; first compound 0.04 µM
  relative viability: 0.646
NCI-H2023; first compound 0.1265 µM
  relative viability: 0.515
NCI-H2023; first compound 0.4 µM
  relative viability: 0.318
NCI-H2023; first compound 1.265 µM
  relative viability: 0.196
NCI-H2023; first compound 4 µM
  relative viability: 0.207
LU99A; first compound 0.04 µM
  relative viability: 0.592
LU99A; first compound 0.1265 µM
  relative viability: 0.496
LU99A; first compound 0.4 µM
  relative viability: 0.434
LU99A; first compound 1.265 µM
  relative viability: 0.21
LU99A; first compound 4 µM
  relative viability: 0.237
NCI-H1650; first compound 0.04 µM
  relative viability: 0.324
NCI-H1650; first compound 0.1265 µM
  relative viability: 0.327
NCI-H1650; first compound 0.4 µM
  relative viability: 0.278
NCI-H1650; first compound 1.265 µM
  relative viability: 0.232
NCI-H1650; first compound 4 µM
  relative viability: 0.221
COR-L 105; first compound 0.04 µM
  relative viability: 0.305
COR-L 105; first compound 0.1265 µM
  relative viability: 0.314
COR-L 105; first compound 0.4 µM
  relative viability: 0.254
COR-L 105; first compound 1.265 µM
  relative viability: 0.203
COR-L 105; first compound 4 µM
  relative viability: 0.19
NCI-H3122; first compound 0.04 µM
  relative viability: 0.542
NCI-H3122; first compound 0.1265 µM
  relative viability: 0.209
NCI-H3122; first compound 0.4 µM
  relative viability: 0.149
NCI-H3122; first compound 1.265 µM
  relative viability: 0.161
NCI-H3122; first compound 4 µM
  relative viability: 0.109
HCC-366; first compound 0.04 µM
  relative viability: 0.65
HCC-366; first compound 0.1265 µM
  relative viability: 0.677
HCC-366; first compound 0.4 µM
  relative viability: 0.514
HCC-366; first compound 1.265 µM
  relative viability: 0.691
HCC-366; first compound 4 µM
  relative viability: 0.3
HARA; first compound 0.04 µM
  relative viability: 0.25
HARA; first compound 0.1265 µM
  relative viability: 0.255
HARA; first compound 0.4 µM
  relative viability: 0.147
HARA; first compound 1.265 µM
  relative viability: 0.113
HARA; first compound 4 µM
  relative viability: 0.219
201T; first compound 0.04 µM
  relative viability: 0.616
201T; first compound 0.1265 µM
  relative viability: 0.56
201T; first compound 0.4 µM
  relative viability: 0.545
201T; first compound 1.265 µM
  relative viability: 0.512
201T; first compound 4 µM
  relative viability: 0.267
NCI-H2009; first compound 0.04 µM
  relative viability: 0.26
NCI-H2009; first compound 0.1265 µM
  relative viability: 0.251
NCI-H2009; first compound 0.4 µM
  relative viability: 0.161
NCI-H2009; first compound 1.265 µM
  relative viability: 0.141
NCI-H2009; first compound 4 µM
  relative viability: 0.156
NCI-H727; first compound 0.04 µM
  relative viability: 0.335
NCI-H727; first compound 0.1265 µM
  relative viability: 0.334
NCI-H727; first compound 0.4 µM
  relative viability: 0.282
NCI-H727; first compound 1.265 µM
  relative viability: 0.173
NCI-H727; first compound 4 µM
  relative viability: 0.217
NCI-H838; first compound 0.04 µM
  relative viability: 0.266
NCI-H838; first compound 0.1265 µM
  relative viability: 0.279
NCI-H838; first compound 0.4 µM
  relative viability: 0.233
NCI-H838; first compound 1.265 µM
  relative viability: 0.251
NCI-H838; first compound 4 µM
  relative viability: 0.181
NCI-H1437; first compound 0.04 µM
  relative viability: 0.411
NCI-H1437; first compound 0.1265 µM
  relative viability: 0.306
NCI-H1437; first compound 0.4 µM
  relative viability: 0.231
NCI-H1437; first compound 1.265 µM
  relative viability: 0.234
NCI-H1437; first compound 4 µM
  relative viability: 0.267
NCI-H1666; first compound 0.04 µM
  relative viability: 0.873
NCI-H1666; first compound 0.1265 µM
  relative viability: 0.837
NCI-H1666; first compound 0.4 µM
  relative viability: 0.643
NCI-H1666; first compound 1.265 µM
  relative viability: 0.539
NCI-H1666; first compound 4 µM
  relative viability: 0.389
PC-14; first compound 0.04 µM
  relative viability: 0.234
PC-14; first compound 0.1265 µM
  relative viability: 0.185
PC-14; first compound 0.4 µM
  relative viability: 0.0685
PC-14; first compound 1.265 µM
  relative viability: 0.0374
PC-14; first compound 4 µM
  relative viability: 0.0307
BEN; first compound 0.04 µM
  relative viability: 0.227
BEN; first compound 0.1265 µM
  relative viability: 0.337
BEN; first compound 0.4 µM
  relative viability: 0.291
BEN; first compound 1.265 µM
  relative viability: 0.319
BEN; first compound 4 µM
  relative viability: 0.26
NCI-H441; first compound 0.04 µM
  relative viability: 0.601
NCI-H441; first compound 0.1265 µM
  relative viability: 0.625
NCI-H441; first compound 0.4 µM
  relative viability: 0.31
NCI-H441; first compound 1.265 µM
  relative viability: 0.314
NCI-H441; first compound 4 µM
  relative viability: 0.231
CAL-12T; first compound 0.04 µM
  relative viability: 0.382
CAL-12T; first compound 0.1265 µM
  relative viability: 0.36
CAL-12T; first compound 0.4 µM
  relative viability: 0.154
CAL-12T; first compound 1.265 µM
  relative viability: 0.0794
CAL-12T; first compound 4 µM
  relative viability: 0.0951
LK-2; first compound 0.04 µM
  relative viability: 0.334
LK-2; first compound 0.1265 µM
  relative viability: 0.235
LK-2; first compound 0.4 µM
  relative viability: 0.173
LK-2; first compound 1.265 µM
  relative viability: 0.247
LK-2; first compound 4 µM
  relative viability: 0.184
SW 900; first compound 0.04 µM
  relative viability: 0.848
SW 900; first compound 0.1265 µM
  relative viability: 0.548
SW 900; first compound 0.4 µM
  relative viability: 0.391
SW 900; first compound 1.265 µM
  relative viability: 0.578
SW 900; first compound 4 µM
  relative viability: 0.17
